pIC50: −log10 of the molar value. Entries after “also recorded” stand apart in the source; their conditions may differ. Read-outs that look alike come from different tables or passages of the source. Each block holds one compound with its values, some of them ahead of it.
What was measured:
[1] = earlier finding; cited from earlier work
[2] = tested on: TNBC cells (SUM-159, MDA-MB-231); experiment: MTT cell viability, TNBC cells; type: cell-based, Human
Procedure: (§1) Cell viability assays: Cells were seeded in 96-well plates (2×10^3 cells/well) one day before the treatment. Cells were treated with varying concentrations of ERX-41 or ERX-11 analogs for 3-6 days. Then effects of ERX-41 or ERX-11 analogs on cell viability were measured in triplicate or sextuplicate with multiple biological replicates using the WST-1 (Promega), MTT as previously described^33 or CellTiter-Glo 2.0 (Promega) assays.

[3] = tested on: ERα-positive breast cancer cells (MCF-7, ZR-75); details: therapy-sensitive and therapy-resistant ERα-positive breast cancers; inventors' previous work; read-out: IC50, block of ERα signaling and ERα-driven proliferation; cited from earlier work
ER Alpha-LBD (GST) = molecular target: T1, ER Alpha-LBD (GST) (Homo sapiens, UniProt P03372); experiment: LanthaScreen TR-FRET ER alpha Coactivator Assay, antagonist mode; type: binding; details: 2 h incubation
T1 construct: 3.5 nM ER Alpha-LBD (GST); purchased life technologies A15885
T1 sequence (P03372 311-547 limits assumed): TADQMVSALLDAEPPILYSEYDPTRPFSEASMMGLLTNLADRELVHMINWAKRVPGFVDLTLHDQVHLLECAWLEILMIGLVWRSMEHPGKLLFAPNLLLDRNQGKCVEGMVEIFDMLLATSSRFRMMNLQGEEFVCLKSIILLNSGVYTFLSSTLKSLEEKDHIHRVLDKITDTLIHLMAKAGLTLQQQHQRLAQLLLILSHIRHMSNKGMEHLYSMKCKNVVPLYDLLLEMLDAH

[4] = tested on: ERα-positive breast cancer cells (MCF-7, ZR-75); experiment: MTT cell viability, ERα-positive breast cancer cells; type: cell-based, Human; details: MCF-7 and ZR-75, read-out: anti-proliferative IC50
Procedure: as §1

[5] = tested on: BC xenografts expressing the Y537S ERα mutant (ZR75, MCF7); experiment: ERX-315 in therapy resistant BC xenografts (Y537S ERα mutant ZR75, MCF7); type: in vivo, mouse
[6] = tested on: ovarian cancer cells and breast cancer cells; experiment: ERX-315 in cancer cell lines; type: cell-based
[7] = ERX-315 in syngeneic D2A1 tumor model, organ evaluation; type: in vivo, mice; details: syngeneic D2A1 tumors
LAL lipase activity = molecular target: T2, LAL lipase activity (Homo sapiens, UniProt P38571); experiment: Lipase activity assay (4-MUP), SUM-159 cell lysate; type: biochemical
T2 construct: heat stability of LAL or vinculin protein in SUM-159 cells; endogenous in cells; host or cells: SUM-159
T2 sequence (P38571 77-399): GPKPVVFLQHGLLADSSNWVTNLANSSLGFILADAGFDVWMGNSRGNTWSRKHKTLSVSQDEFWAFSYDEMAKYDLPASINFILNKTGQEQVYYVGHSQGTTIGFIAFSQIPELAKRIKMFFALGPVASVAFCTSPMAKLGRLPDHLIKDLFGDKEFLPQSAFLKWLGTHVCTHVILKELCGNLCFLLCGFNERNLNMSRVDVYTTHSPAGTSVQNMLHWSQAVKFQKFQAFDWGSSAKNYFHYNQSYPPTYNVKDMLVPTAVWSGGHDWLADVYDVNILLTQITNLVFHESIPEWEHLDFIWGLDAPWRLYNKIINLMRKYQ
Procedure: Lipase activity assay: Lipase activity assays were performed as described previously (Dairaku, et al)^37. Briefly, a 0.345 mM substrate solution was prepared from 1.2 mL of 13.3 mM 4-MUP and 42 mL of 100 mM sodium acetate buffer pH 4.0, 1.0% (v/v) Triton X-100 and 3.0 mL of 0.5% (w/v) cardiolipin. For the enzyme reaction, 50 μL of the substrate in buffer solution, 40 μL of diluted cell lysate and 10 μL of DMSO or 30 μM Lalistat2 or 30 μM ERX-41 were combined in a black 96-well plate. The plates were sealed with an adhesive aluminum film and incubated in a 37° C. incubator for 1 h. The reactions were terminated using 200 μL of 150 mM EDTA at pH 11.5. The fluorescence of the plates were read immediately with synergy H1 fluorescence microplate reader (BioTek) using a 365-nm excitation filter and a 450-nm emission filter. The LIPA lipase activity was calculated by subtracting the enzymatic activity of the inhibited (with Lalistat2) reaction from that of the uninhibited (without Lalistat2) reaction.

TNBC = experiment: ER stress, cell death and lysosomes in TNBC (discussion, no method); type: cell-based
[8] = tested on: SUM-159 cells with LIPA KO; experiment: UPR induction and protein synthesis in SUM-159 cells with LIPA KO (RNA-seq, RT-qPCR, western); type: cell-based, Human; details: known ER stress inducers
Procedure: Western blotting: Whole cell lysates from breast cancer cells were prepared with 2× sample buffer (60 mM Tris-HCl, pH 6.8, 2% sodium dodecyl sulfate, 10% glycerol), and before loading mixed with loading buffer (5% 2-mercaptoethanol, 0.1% bromophenol blue) and boiled for denaturation, as previously described.^33 Proteins were separated by SDS-PAGE and subjected to Western analysis using antibodies. To detect nascent translated proteins, puromycin (final concentration 10 μg/mL) was added into cell plates 30 minutes before harvesting cells. Then samples were subjected to the Western blotting. Nascent proteins were detected by anti-puromycin antibody.
Real-time quantitative PCR (RT-qPCR): Total RNA was prepared from breast cancer cells using the RNeasy Mini Kit (Qiagen) according to the manufacturer protocols. Subsequently, total RNAs were reverse transcribed into cDNA using iScript Reverse Transcription Supermix (Bio-rad) and by using SYBR Green on an Illumina Real-Time PCR system.
RNA-sequencing: mRNA-seq sequencing library construction was performed using TruSeq RNA Library Preparation Kit (Illumina) according to the manufacturer's instructions. FASTQ reads from Genomics Core at UTSW were mapped to Human GRCh38 genome using HiSAT2 (RRID:SCR_015530). Differential expression analysis is performed using DEseq2 (RRID:SCR_015687). Abundances of transcripts are calculated using ballgown (Frazee et al. 2014). The values of Fragments Per Kilobase of transcript per Million mapped reads (FPKM) were used for Gene Set Enrichment Analysis (GSEA). GSEA was performed by using the GSEA software (RRID:SCR_005724) and C5 ontology gene sets (14765 gene sets in total). mRNA-seq data from this study are available from NCBI GEO under accession #GSE168800.

pIC50 ([2]; MTT, SUM-159 and MDA-MB-231, read-out: IC50 against TNBC cells): < 5.00 | interaction with ERα LBD (ER Alpha-LBD (GST)): interact with ERG LBD | pIC50 [4]: 6.30 to 6.70
Compound: CC(C)COc1cc(C(N)=O)ccc1NC(=O)c1ccc(NC(=O)c2ccc([N+](=O)[O-])c(OCCO)c2)c(OCC(C)C)c1 [ERX-11, reference compound]
oral bioavailability [1]: orally bioavailable | anti-tumor activity in TNBC cells ([2]; TNBC cells (lack expression of ERα)): did not show anti-tumor activity | pIC50 [3]: 6.30 to 6.70

pIC50 ([6]; read-out: IC50 against ovarian cancer cells and breast cancer cells): 7.30 to 8.00 | immunogenicity, immune infiltrates in spleen, lymph nodes, kidney, liver [7]: not immunogenic
Compound: CC(C)COc1cc(C(=O)Nc2ccc(C(=O)N[C@H]3CC[C@H](C(=O)Nc4cnc5ccccc5c4)CC3)cc2OCC(C)C)ccc1NC(=O)c1ccc(F)c(OCCO)c1 [ERX-315]
Ki67 proliferation indices of tumors ([5]; histologic evaluation): dramatically decreased K167 proliferation indices | activity against therapy resistant BC xenografts ([5]; oral, captisol formulation, listed as TK315): decreased the growth and tumor weight; also recorded: potent activity | mouse liver or body weight ([5]; oral, listed as TK315): No change in body weight; also recorded: no effect on mouse liver or body weight | effectiveness in cell culture models of cancer ([6]; FIG. 17): effective in each cell line tested

Compound: O=C(Oc1nsnc1N1CCCCC1)N1CCCCC1 [Lalistat 2]
lipase function (other lipases) in LIPA-KO cells (LAL lipase activity; LIPA-KO cells): lack of inhibitory activity on lipase function | lipase activity of LIPA (LAL lipase activity; SUM-159 cells, 30 μM): attenuated lipase activity | induction of ER stress or cell death in TNBC (TNBC): does not induce ER stress or cell death in TNBC

interaction with ERα LBD (ER Alpha-LBD (GST)): interact with ERG LBD
Compound: C[C@]12CC[C@@H]3c4ccc(O)cc4C[C@@H](CCCCCCCCC[S+]([O-])CCCC(F)(F)C(F)(F)F)[C@H]3[C@@H]1CC[C@@H]2O (stereo partly drawn) [fulvestrant]

Compound: C/C=C(/C)C(=O)O[C@H]1C(C)=C2[C@H]([C@@H]1OC(=O)CCCCCCC)[C@@](C)(OC(C)=O)C[C@H](OC(=O)CCC)[C@@]1(O)[C@H]2OC(=O)[C@@]1(C)O [thapsigargin, reference compound]
inducibility of UPR genes in LIPA KO cells [8]: preserved

Compound: tunicamycin [reference compound]
inducibility of UPR genes in LIPA KO cells [8]: preserved

Reference: patent publication US20250114313A1, “OLIGO-BENZAMIDE ANALOGS AND THEIR USE IN CANCER TREATMENT” (BOARD OF REGENTS, THE UNIVERSITY OF TEXAS SYSTEM, priority 2022, published 2025)
